Measurements taken from patent publication US7687079B2, “Methods of treating ileus” (priority 2002, dated 2010).
Entries after “also recorded” stand apart in the source; their conditions may differ.

How the values were obtained:
[1] = test system: small intestinal circular muscle; assay: in vitro circular muscle contractility (spontaneous and bethanechol-stimulated) after IM; type: in vivo, mouse
Description: Surgical Manipulation. Mice were anesthetized with inhaled isoflurane and the abdomen opened by midline laparotomy. The small intestine was eventrated and gently compressed along its entire length using moistened sterile cotton applicators. This procedure is designed to simulate “running” of the bowel commonly performed during abdominal surgery in the clinical setting. The bowel was repositioned in the abdominal cavity and the incision closed by two layers of continuous sutures. The duration of the procedure was approximately 15 minutes and the animals moved freely about their cage within 20 minutes of withdrawal of anesthetic.
CO Inhalation Treatment. Mice housed in cages were placed in plexiglass chambers that were continuously ventilated with air or with air containing CO (250 ppm). A sampling port was provided to continuously monitor carbon monoxide concentrations within the chamber. Animals had free access to food and water at all times. Mice were exposed to CO or air 1 hour prior to laparotomy, removed for surgical manipulation, and then returned to the chamber for 24 hours. Mice not undergoing surgery were removed from the chamber for a similar length of time and then returned to the chamber for 24 hours.
Mice were anesthetized and killed by exsanguination at the end of the 24-hour chamber treatment with CO or room air. In vitro circular muscle mechanical activity was measured as previously described in Eskandari et al. (Am. J. Physiol. 273:G727-G734 (1997)). Briefly, a segment of mid small bowel was pinned in a Sylgard™ (Midland, Mich.) lined dissecting dish containing pre-oxygenated Krebs-Ringer-bicarbonate buffer (KRB; in mM: 137.4 Na^+, 5.9 K^+, 2.5 Ca^2+, 1.2 Mg^2+, 134 Cl^−, 15.5 HCO3^−, 1.2 H2PO4−, and 11.5 glucose), gassed with 97% O2/3% CO2 to establish a pH of 7.4. The intestine was opened along the mesenteric border, and the mucosa removed by stripping with fine forceps. Full-thickness strips of muscularis (1×6 mm) cut parallel to the circular muscle layer were mounted in standard horizontal mechanical organ chambers and were continuously superfused with preoxygenated KRB maintained at 37° C. One end of each strip was attached by ligature to a fixed post and the other to an isometric force transducer (WPI, Sarasota, Fla.). Strips were allowed to equilibrate for 1 hour, after which they were incrementally stretched to Lo (length at which maximal spontaneous contraction occurs). After a baseline recording period of 30 min, contractility-response curves were generated by exposing the tissues to increasing concentrations of the muscarinic agonist bethanechol (0.3 to 300 μM) for 10 minutes, followed by intervening 10-minute wash periods. Contractile activity was calculated by integrating the area under the trace. The response was normalized to the amount of tissue by converting the weight (1.03 mg/mm^2) and length of the strip to square millimeters of tissue, and reported as g/s/mm^2. Intestinal transit was measured in controls and manipulated animals 24 hours postoperatively by evaluating the intestinal distribution of a non-absorbable fluorescein-labeled dextran (MW 70,000). Animals were lightly sedated with isofluran and fed orally with labeled dextran (100 μl of 25 mg/ml stock solution). Ninety minutes after administration, the animal was sacrificed and the entire bowel from stomach to distal colon was collected. The contents of the stomach, small bowel (divided into 10 segments of equal length), the cecum, and colon (3 segments of equal length) were each minced in 1 ml of saline and mixed vigorously to release the dextran present in each segment. After pelleting the intestinal tissue and chyme, aliquots of the cleared supernatant were read in duplicate on a plate reader (CytoFluor II; excitation wavelength 530 nm and emission 590 nm) for quantification of the fluorescent signal in each bowel segment. […]

HO-1 mRNA = HO-1 mRNA in muscularis after IM (real time RT-PCR); type: in vivo, mouse
Method: Pro- and anti-inflammatory gene expression was determined by real time RT-PCR. The small intestinal muscularis externa was collected at 4 time points (3, 6, 12, and 24 hr) postoperatively and snap frozen in liquid nitrogen. Total RNA extraction was performed using the guanidium-thiocyanate phenol-chloroform extraction method as described in Eskandari et al. (Id.) RNA pellets were resuspended in RNA-secure resuspension solution (Ambion Inc., Austin, Tex.), followed by removal of potential contaminating DNA by treatment with DNase I (DNA-Free Kit, Ambion Inc., Austin, Tex.). Equal aliquots (5 μg) of total RNA from each sample were quantified by spectrophotometry (wavelength […]). Peak mRNA expression was quantified in duplicate by SYBR Green two-step, real-time RT-PCR. β-actin was used as the endogenous reference. Aliquoted RNA (40 ng) was subjected to first-strand complementary DNA (cDNA) synthesis using random hexamers (PE applied Biosystems, Foster City, Calif.) and Super Script II (Life Technologies, Rockville, Md.). Primers were taken from the literature or designed according to published sequences (Table 3). PCR reaction mixture was prepared using SYBR Green PCR Core Reagents (PE Applied Biosystems). Each sample was estimated in duplicate using the conditions recommended by the manufacturer. Real-time PCR data were plotted as the ΔRn fluorescence signal versus the cycle number. An arbitrary threshold was set to the midlinear portion of the log ΔRn cycle plot. The threshold cycle (CT) is defined as the cycle number at which the ΔRn, crosses this threshold. Quantification of mRNA expression was normalized to β-actin and calculated relative to control using the comparative CT method.
To exclude PCR amplification of contaminating genomic DNA, RT-negative controls (samples containing RNA which was not reverse transcribed) were included in each PCR reaction. Melting curve analyses were performed for each reaction to ensure amplification of specific product. […] PCR amplification efficiency of each target cDNA was measured by determining the colinearity of serial dilutions. […]

## [C-]#[O+] [CO, carbon monoxide]
[1]; IM + CO
  bethanechol-induced contractile activity: restored contractile activity to control levels
[1]; IM + CO 250 ppm, 100 μM bethanechol
  peak contractile force: 3.6±0.7 g/s/mm^2
[1]; IM mice treated with CO
  spontaneous contractile activity (rythmicity): significantly improved; also recorded: restored
[1]; control animals + CO
  bethanechol-induced contractile activity: no effect
[1]; control mice + CO 24 hr
  spontaneous contractility: no effect
[1]; control mice, CO alone, bethanechol
  peak contractile force: 3.2±0.5 g/s/mm^2
HO-1 mRNA; IM + CO vs IM, 3 hr but not 6 hr postoperatively
  HO-1 mRNA expression: significantly increased
HO-1 mRNA; IM + CO vs IM, 3 hr postoperatively
  HO-1 gene expression, increase over manipulation alone: 300%
HO-1 mRNA; unoperated control mice, CO alone, 6 hr time point
  HO-1 gene expression: small, though significant, increase; also recorded: increased
